# Where two headings read alike, the source gives them in different places.
# What was measured:
# [1] = format: physicochemical; details: stored at room temperature (21-25° C.)
# Method: At each time period, 0.05 g of powder was dissolved in 10 ml-15 of ethanol, diluted to fall within the analytical range, and injected into the LCMSMS for analysis.
# [2] = Stability of cannabinoid and Vitamin E components of Beverage 2 (AB Red) stored at 8° C. and 21-25° C., LCMSMS over 570 days; details: 8° C.
# Method: The LCMSMS was calibrated for 0-50 ng/ml cannabinoids with the same resin material used in the preparation of the concentrates. At each time period, 100 μml of beverage was diluted with 10 ml of methanol and injected into the LCMSMS for analysis.
smiles,measurement,setting,value
"CCCCCc1cc(O)c(C/C=C(\C)CCC=C(C)C)c(O)c1 [CBG, cannabigerol]",Stability in Powder Concentrate (content by LCMSMS),[1]; day 0,1.1 mg/g powder
same,Stability in Powder Concentrate (content by LCMSMS),[1]; day 1,1.07 mg/g powder
same,Stability in Powder Concentrate (content by LCMSMS),[1]; day 2,1.08 mg/g powder
same,Stability in Powder Concentrate (content by LCMSMS),[1]; day 3,1.09 mg/g powder
same,Stability in Powder Concentrate (content by LCMSMS),[1]; day 5,1.11 mg/g powder
same,Stability in Powder Concentrate (content by LCMSMS),[1]; day 8,1.07 mg/g powder
same,Stability in Powder Concentrate (content by LCMSMS),[1]; day 9,1.09 mg/g powder
same,Stability in Powder Concentrate (content by LCMSMS),[1]; day 10,1.08 mg/g powder
same,Stability in Powder Concentrate (content by LCMSMS),[1]; day 11,1.14 mg/g powder
same,Stability in Powder Concentrate (content by LCMSMS),[1]; day 12,1.10 mg/g powder
same,Stability in Powder Concentrate (content by LCMSMS),[1]; day 15,1.08 mg/g powder
same,Stability in Powder Concentrate (content by LCMSMS),[1]; day 16,1.06 mg/g powder
same,Stability in Powder Concentrate (content by LCMSMS),[1]; day 17,1.06 mg/g powder
same,Stability in Powder Concentrate (content by LCMSMS),[1]; day 18,1.13 mg/g powder
same,Stability in Powder Concentrate (content by LCMSMS),[1]; day 19,1.14 mg/g powder
same,Stability in Powder Concentrate (content by LCMSMS),[1]; day 22,1.12 mg/g powder
same,Stability in Powder Concentrate (content by LCMSMS),[1]; day 23,1.13 mg/g powder
same,Stability in Powder Concentrate (content by LCMSMS),[1]; day 24,1.09 mg/g powder
same,Stability in Powder Concentrate (content by LCMSMS),[1]; day 25,1.13 mg/g powder
same,Stability in Powder Concentrate (content by LCMSMS),[1]; day 26,1.14 mg/g powder
same,Stability in Powder Concentrate (content by LCMSMS),[1]; day 29,1.10 mg/g powder
same,Stability in Powder Concentrate (content by LCMSMS),[1]; day 30,1.07 mg/g powder
same,Stability in Powder Concentrate (content by LCMSMS),[1]; day 60,1.1 mg/g powder
same,Stability in Powder Concentrate (content by LCMSMS),[1]; day 90,1.13 mg/g powder
same,Stability in Powder Concentrate (content by LCMSMS),[1]; day 120,1.09 mg/g powder
same,Stability in Powder Concentrate (content by LCMSMS),[1]; day 150,1.11 mg/g powder
same,Stability in Powder Concentrate (content by LCMSMS),[1]; day 180,1.07 mg/g powder
same,Stability in Powder Concentrate (content by LCMSMS),[1]; day 210,1.06 mg/g powder
same,Stability in Powder Concentrate (content by LCMSMS),[1]; day 240,1.12 mg/g powder
same,Stability in Powder Concentrate (content by LCMSMS),[1]; day 270,1.15 mg/g powder
same,Stability in Powder Concentrate (content by LCMSMS),[1]; day 300,1.09 mg/g powder
same,Stability in Powder Concentrate (content by LCMSMS),[1]; day 330,1.10 mg/g powder
same,Stability in Powder Concentrate (content by LCMSMS),[1]; day 360,1.09 mg/g powder
same,Stability in Powder Concentrate (content by LCMSMS),[1]; day 390,1.14 mg/g powder
same,Stability in Powder Concentrate (content by LCMSMS),[1]; day 420,1.11 mg/g powder
same,Stability in Powder Concentrate (content by LCMSMS),[1]; day 450,1.06 mg/g powder
same,Stability in Powder Concentrate (content by LCMSMS),[1]; day 480,1.12 mg/g powder
same,Stability in Powder Concentrate (content by LCMSMS),[1]; day 510,1.07 mg/g powder
same,Stability in Powder Concentrate (content by LCMSMS),[1]; day 540,1.07 mg/g powder
same,Stability in Powder Concentrate (content by LCMSMS),[1]; day 570,1.06 mg/g powder
same,Stability of Cannabinoids in AB Red,[2]; 0 days,4.75 µg/mL
same,Stability of Cannabinoids in AB Red,[2]; 1 days,4.62 µg/mL
same,Stability of Cannabinoids in AB Red,[2]; 2 days,4.79 µg/mL
same,Stability of Cannabinoids in AB Red,[2]; 3 days,4.70 µg/mL
same,Stability of Cannabinoids in AB Red,[2]; 5 days,4.75 µg/mL
same,Stability of Cannabinoids in AB Red,[2]; 8 days,4.76 µg/mL
same,Stability of Cannabinoids in AB Red,[2]; 9 days,4.72 µg/mL
same,Stability of Cannabinoids in AB Red,[2]; 10 days,4.68 µg/mL
same,Stability of Cannabinoids in AB Red,[2]; 11 days,4.77 µg/mL
same,Stability of Cannabinoids in AB Red,[2]; 12 days,4.64 µg/mL
same,Stability of Cannabinoids in AB Red,[2]; 15 days,4.68 µg/mL
same,Stability of Cannabinoids in AB Red,[2]; 16 days,4.65 µg/mL
same,Stability of Cannabinoids in AB Red,[2]; 17 days,4.77 µg/mL
same,Stability of Cannabinoids in AB Red,[2]; 18 days,4.67 µg/mL
same,Stability of Cannabinoids in AB Red,[2]; 19 days,4.71 µg/mL
same,Stability of Cannabinoids in AB Red,[2]; 22 days,4.70 µg/mL
same,Stability of Cannabinoids in AB Red,[2]; 23 days,4.66 µg/mL
same,Stability of Cannabinoids in AB Red,[2]; 24 days,4.65 µg/mL
same,Stability of Cannabinoids in AB Red,[2]; 25 days,4.73 µg/mL
